{
  "source": "patent US7585644B2",
  "about": "“Mycopolasma detecting methods and materials” (priority 2003, dated 2009)",
  "key": {"[1]": {"tested_on": "luciferase enzyme/reaction", "assay": "Effect of detergents and substrate on light output of the luciferase reaction", "assay_type": "biochemical", "description": "(§1) The aim of the following experiments was to determine the concentrations of Triton-X100 in the Hepes-EDTA buffer on the ratios seen with mycoplasma contaminated K562 cell cultures. Two organisms were investigated, M. hyorhinis and M. orale.\n(§2) However, it is still possible to detect positive activity with concentrations as high as 20% (v/v).\n(§3) The concentrations of these detergents can be taken up to 10% without loss of sensitivity of mycoplasmal detection."}, "luciferase": {"target": "luciferase (Photinus pyralis, UniProt P08659)", "sequence (P08659 whole entry)": "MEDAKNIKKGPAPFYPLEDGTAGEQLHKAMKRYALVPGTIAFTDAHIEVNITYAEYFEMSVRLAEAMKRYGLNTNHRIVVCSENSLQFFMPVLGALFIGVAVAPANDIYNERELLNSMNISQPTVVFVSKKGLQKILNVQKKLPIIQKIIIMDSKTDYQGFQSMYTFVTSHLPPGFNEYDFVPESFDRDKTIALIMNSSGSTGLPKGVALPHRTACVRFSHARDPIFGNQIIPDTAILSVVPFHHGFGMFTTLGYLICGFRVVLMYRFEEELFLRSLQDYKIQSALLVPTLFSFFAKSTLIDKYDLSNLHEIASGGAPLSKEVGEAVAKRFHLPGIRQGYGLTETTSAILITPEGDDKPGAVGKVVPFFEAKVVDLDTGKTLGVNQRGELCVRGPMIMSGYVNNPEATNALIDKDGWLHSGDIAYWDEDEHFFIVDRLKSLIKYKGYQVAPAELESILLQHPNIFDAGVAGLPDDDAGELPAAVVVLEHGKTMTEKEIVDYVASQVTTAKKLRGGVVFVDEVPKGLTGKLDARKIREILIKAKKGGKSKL", "conditions": "cited from earlier work"}, "[2]": {"tested_on": "M. pneumoniae, M. hominis, M. fermentans, M. genitalium and U. urealyticum", "conditions": "variable responses between species; cited from earlier work"}, "[3]": {"tested_on": "M. hyorhinis and M. orale", "assay": "Effect of detergent concentration on detection of mycoplasma enzyme activities", "assay_type": "cell-based", "description": "as §1, §2\nHowever, mycoplasma can be lysed with concentrations of Triton X-100 at around 1-2%.\nas §3"}, "[4]": {"tested_on": "E. coli strain JM109 cells", "assay": "Effect of Triton-X100 on carbamate or acetate kinase activity from bacterial cells", "assay_type": "cell-based"}},
  "data": [
    {"molecule": "CC(=O)OP(=O)(O)O", "note": "[Acetyl phosphate]", "values": [
      {"measurement": "concentration above which light output is reduced", "setting": "[1]; assay still performs", "result": "above 10"}
    ]},
    {"molecule": "Nc1ncnc2c1ncn2[C@H]1C[C@H](O)[C@@H](COP(=O)(O)OP(=O)(O)OP(=O)(O)O)O1", "note": "[deoxy-ATP]", "values": [
      {"measurement": "light produced relative to the light generated by ATP", "setting": "luciferase", "result": "less than 2%"}
    ]},
    {"molecule": "CO/N=C1\\CN(c2nc3c(cc2F)c(=O)c(C(=O)O)cn3C2CC2)CC1CN", "note": "(centres unmarked) [gemifloxacin]", "values": [
      {"measurement": "performance against mycoplasma compared with other antibiotics", "setting": "[2]", "result": "performed better than tetracycline"}
    ]},
    {"molecule": "Triton-X100", "values": [
      {"measurement": "detergent concentration above which light output drops", "setting": "[1]; K562 cells infected with M. hyorhinis and M. orale, Hepes-EDTA buffer", "result": "4-5%"},
      {"measurement": "concentration that lyses mycoplasma", "setting": "[3]", "result": "1-2%"},
      {"measurement": "highest detergent concentration at which positive activity is still detected", "setting": "[3]; K562 cells infected with M. hyorhinis and M. orale", "result": "20 % (v/v)"},
      {"measurement": "carbamate or acetate kinase activity", "setting": "[4]; Triton-X100 concentrations of the FIG. 10 experiments", "result": "did not result in any detectable carbamate or acetate kinase activity"},
      {"measurement": "ratio B/A", "setting": "[4]; Triton-X100 increased to 1-2%", "result": "did not result in positive ratios above 1"}
    ]}
  ]
}
